Assay results as given in US10913727B2, “Modulators of the integrated stress pathway” (Calico Life Sciences LLC, priority 2016, dated 2021).

Tested on: HEK293T cells carrying the ATF4 luciferase reporter
Assay: ATF4-Luc assay, in vitro model of Vanishing Cell White Matter Disease (VWMD)
Type: cell-based
Settings: Homo sapiens, HEK-293T, 1 μg/mL tunicamycin, 7 hours, One Glo luminescence
Summary of the method: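 Reporter cells were stably generated by retroviral transduction and puromycin selection, then seeded at 30,000 cells/well. Next day, cells received 1 μg/mL tunicamycin with 200 nM test compound for 7 h, and luciferase luminescence was read with a one-step reagent. Values reported as EC50.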

Row | SMILES | EC50 [nM]
1 | O=C(COc1ccc(Cl)c(F)c1)NC12CCC(NC(=O)c3cscn3)(CC1)C(O)C2 (stereo not drawn) [Compound 212, N-{4-[2-(4-chloro-3-fluorophenoxy)acetamido]-2-hydroxybicyclo[2.2.2]octan-1-yl}-1,3-thiazole-4-carboxamide] | 250 to 1000
2 | C[S+]([O-])c1ccccc1C(=O)NC12CC(NC(=O)COc3ccc(Cl)c(F)c3)(C1)C2 (stereo not drawn) [Compound 858, N-{3-[2-(4-chloro-3-fluorophenoxy)acetamido]bicyclo[1.1.1]pentan-1-yl}-2-(methanesulfinyl)benzamide] | 1000 to 2000
3 | Cc1ccc(C(=O)NC23CC(NC(=O)COc4ccc(Cl)c(F)c4)(C2)C3)cc1CO [Compound 452, N-{3-[2-(4-chloro-3-fluorophenoxy)acetamido]bicyclo[1.1.1]pentan-1-yl}-3-(hydroxymethyl)-4-methylbenzamide] | 250 to 1000
4 | O=C(COc1ccc(Cl)c(F)c1)NC12CC(NC(=O)c3ccc(O)nc3)(C1)C2 [Compound 322, N-{3-[2-(4-chloro-3-fluorophenoxy)acetamido]bicyclo[1.1.1]pentan-1-yl}-6-hydroxypyridine-3-carboxamide] | > 2000
5 | N#Cc1ccnc(C(=O)NC23CCC(NC(=O)COc4ccc(Cl)c(F)c4)(CC2)C(O)C3)c1 (stereo not drawn) [Compound 932, N-{4-[2-(4-chloro-3-fluorophenoxy)acetamido]-3-hydroxybicyclo[2.2.2]octan-1-yl}-4-cyanopyridine-2-carboxamide] | 50 to 250
6 | Cc1cc2c(NC34CC(NC(=O)COc5cc(F)c(F)c(F)c5)(C3)C4)nccn2n1 [Compound 495, N-{3-[(2-methylpyrazolo[1,5-a]pyrazin-4-yl)amino]bicyclo[1.1.1]pentan-1-yl}-2-(3,4,5-trifluorophenoxy)acetamide] | 250 to 1000
7 | N#Cc1ccc(C(=O)NC23CC(NC(=O)COc4ccc(Cl)c(F)c4)(C2)C3)nc1 [Compound 173, N-{3-[2-(4-chloro-3-fluorophenoxy)acetamido]bicyclo[1.1.1]pentan-1-yl}-5-cyanopyridine-2-carboxamide] | 50 to 250
8 | O=C(COc1ccc(Cl)c(Cl)c1)NC12CC(NC(=O)c3cnc(C(F)(F)F)s3)(C1)C2 [Compound 646, N-{3-[2-(3,4-dichlorophenoxy)acetamido]bicyclo[1.1.1]pentan-1-yl}-2-(trifluoromethyl)-1,3-thiazole-5-carboxamide] | 50 to 250
9 | O=C(COc1ccc(Cl)c(F)c1)NC12CCC(NC(=O)c3ccc(C(F)F)s3)(CC1)CC2O (stereo not drawn) [Compound 623, N-{4-[2-(4-chloro-3-fluorophenoxy)acetamido]-3-hydroxybicyclo[2.2.2]octan-1-yl}-5-(difluoromethyl)thiophene-2-carboxamide] | 50 to 250
10 | Cc1cc(C(=O)NC23CCC(NC(=O)COc4ccc5c(c4)OC(F)(F)O5)(CC2)[C@@H](O)C3)on1 [Compound 636, N-[(3S)-4-{2-[(2,2-difluoro-2H-1,3-benzodioxol-5-yl)oxy]acetamido}-3-hydroxybicyclo[2.2.2]octan-1-yl]-3-methyl-1,2-oxazole-5-carboxamide] | 250 to 1000
11 | Cc1ccoc1C(=O)NC12CC(NC(=O)COc3ccc(Cl)c(F)c3)(C1)C2 [Compound 545, N-{3-[2-(4-chloro-3-fluorophenoxy)acetamido]bicyclo[1.1.1]pentan-1-yl}-3-methylfuran-2-carboxamide] | 250 to 1000
12 | Cc1cc2c(NC34CC(NC(=O)COc5ccc(OC(F)(F)F)c(F)c5)(C3)C4)nccn2n1 [Compound 496, 2-[3-fluoro-4-(trifluoromethoxy)phenoxy]-N-{3-[(2-methylpyrazolo[1,5-a]pyrazin-4-yl)amino]bicyclo[1.1.1]pentan-1-yl}acetamide] | 50 to 250
13 | Cn1c(C(=O)NC23CC(NC(=O)COc4ccc(Cl)c(F)c4)(C2)C3)cc2ccccc21 [Compound 648, N-{3-[2-(4-chloro-3-fluorophenoxy)acetamido]bicyclo[1.1.1]pentan-1-yl}-1-methyl-1H-indole-2-carboxamide] | 50 to 250
14 | CCc1cc(C(=O)NC23CCC(NC(=O)COc4ccc(Cl)c(F)c4)(C2)C3)n(C)n1 [Compound 571, N-{4-[2-(4-chloro-3-fluorophenoxy)acetamido]bicyclo[2.1.1]hexan-1-yl}-3-ethyl-1-methyl-1H-pyrazole-5-carboxamide] | 250 to 1000
15 | Cc1cncc(C(=O)NC23CC(NC(=O)COc4ccc(Cl)c(Cl)c4)(C2)C3)c1 [Compound 645, N-{3-[2-(3,4-dichlorophenoxy)acetamido]bicyclo[1.1.1]pentan-1-yl}-5-methylpyridine-3-carboxamide] | 50 to 250
16 | Cc1ccc(C(=O)NC23CC(NC(=O)COc4ccc(Cl)c(F)c4)(C2)C3)nn1 [Compound 137, N-{3-[2-(4-chloro-3-fluorophenoxy)acetamido]bicyclo[1.1.1]pentan-1-yl}-6-methylpyridazine-3-carboxamide] | 1000 to 2000
17 | CC(C)c1ccc(C(=O)NC23CC(NC(=O)COc4ccc(Cl)c(F)c4)(C2)C3)cn1 [Compound 642, N-{3-[2-(4-chloro-3-fluorophenoxy)acetamido]bicyclo[1.1.1]pentan-1-yl}-6-(propan-2-yl)pyridine-3-carboxamide] | 1000 to 2000
18 | CC(C)(O)CCc1ccnc(C(=O)NC23CC(NC(=O)COc4ccc(Cl)c(Cl)c4)(C2)C3)c1 [Compound 433, N-{3-[2-(3,4-dichlorophenoxy)acetamido]bicyclo[1.1.1]pentan-1-yl}-4-(3-hydroxy-3-methylbutyl)pyridine-2-carboxamide] | > 2000
19 | O=C(COc1ccc(Cl)c(F)c1)NC12CC(NC(=O)c3cc(N4CC(F)(F)C4)ccn3)(C1)C2 [Compound 189, N-{3-[2-(4-chloro-3-fluorophenoxy)acetamido]bicyclo[1.1.1]pentan-1-yl}-4-(3,3-difluoroazetidin-1-yl)pyridine-2-carboxamide] | 250 to 1000
20 | Cc1nc(C(=O)NC23CC(NC(=O)COc4ccc(Cl)c(Cl)c4)(C2)C3)cs1 [Compound 559, N-{3-[2-(3,4-dichlorophenoxy)acetamido]bicyclo[1.1.1]pentan-1-yl}-2-methyl-1,3-thiazole-4-carboxamide] | < 50
21 | CCc1cc(C(=O)NC23CCC(NC(=O)COc4ccc(Cl)c(F)c4)(CC2)C(O)C3)on1 (stereo not drawn) [Compound 515, N-{4-[2-(4-chloro-3-fluorophenoxy)acetamido]-3-hydroxybicyclo[2.2.2]octan-1-yl}-3-ethyl-1,2-oxazole-5-carboxamide] | < 50
22 | Cn1cc(C(=O)NC23CC(NC(=O)COc4ccc(Cl)c(F)c4)(C2)C3)cn1 [Compound 246, N-{3-[2-(4-chloro-3-fluorophenoxy)acetamido]bicyclo[1.1.1]pentan-1-yl}-1-methyl-1H-pyrazole-4-carboxamide] | 250 to 1000
23 | CC(C)(C)c1nc(C(=O)NC23CCC(NC(=O)COc4ccc(Cl)c(F)c4)(CC2)C(O)C3)co1 (stereo not drawn) [Compound 629, 2-tert-butyl-N-{4-[2-(4-chloro-3-fluorophenoxy)acetamido]-3-hydroxybicyclo[2.2.2]octan-1-yl}-1,3-oxazole-4-carboxamide] | 250 to 1000
24 | Cc1cncc(C(=O)NC23CC(NC(=O)COc4ccc(Cl)c(F)c4)(C2)C3)n1 [Compound 650, N-{3-[2-(4-chloro-3-fluorophenoxy)acetamido]bicyclo[1.1.1]pentan-1-yl}-6-methylpyrazine-2-carboxamide] | 50 to 250
